Patent publication US4740501A (priority 1985, dated 1988)
Read-outs that look alike come from different tables or passages of the source.

Legend:
[1] = system: MMTV proteins; experiment: Intracellular MMTV polypeptides (immune precipitation, NaDodSO4-PAGE); type: cell-based, mouse; conditions: for activity at 15 µM: Mus musculus, control 100, read-out: Relative level of MMTV-associated radioactivity (%): Total MMTV Protein
Description: Intracellular MMTV proteins were identified in monolayer cells after 24 or 48 hour exposure to 15 uM PTT.119. Cultures were labeled with 25 uCi/ml of (^3 H)-leucine for the first 24 hours and were then doubly labeled with (^35 S)-methionine when the spent media were replenished. The relative rates of MMTV polypeptide synthesis were determined using parallel cultures continuously-treated with PTT.119 and pulse labeled for 15 minutes with ^35 S-methionine. Following labeling, the cells were washed twice in cold 0.01M phosphate-buffered saline, pH 7.5, and a solution of protease inhibitors added to yield a final concentration of 1 uM pepstatin, 10 ug soybean trypsin inhibitor/ml, and 1 mM N-ethyl maleimide. Cells were then disrupted in 0.05M phosphate buffer containing 0.1M NaCl and 0.1% Triton X-100, pH 7.5 (Pi/NaCl/Triton). Cells were scraped from the substrate and lysis completed by passing the suspensions through a 27 gauge needle five times. Nuclei were removed by centrifugation at 600×g for 10 minutes at 4° C. and 100 ul aliquots of the supernatants mixed with 10 ul preimmune rabbit sera and 50 ul of 10% […] formalin-fixed and heat-killed.
Following a 15 minute incubation at 26° C., the Staphlococcus aureus (Cowan strain) immunoabsorbent was removed by centrifugation at 10,000×g for 1 minute in a Beckman microfuge. Supernatants (100 ul) were sequentially incubated at 26° C. with 33 ul of rabbit anti-MMTV antisera for 25 minutes and 150 ul of 10% S. aureus for 15 minutes. S. aureus was then pelleted and the precipitate washed five times in Pi/NaCl/Triton. Samples were finally resuspended in 20 ul of 1% NaDodSO4 /2-mercaptoethanol, heated for 1 minute at 100° C. to release MMTV proteins, and centrifuged to remove S. aureus. Supernatants were then subjected to NaDodSO4 -PAGE. Samples were disrupted in 1% NaDodSO4 and 1% B-mercaptoethanol at 100° C. for 1 minute electrophoresed on 10-20% polyacrylamide gradient slab gels using a discontinuous buffer system. Electrophoresis of immune precipitates from cell lysates was carried out in a similar manner using 7.5-15% polyacrylamide gradients. Mr of MMTV-related polypeptides were determined by coelectrophoresis of [^14 C]-protein standards (Mr 30,000 to 50,000 Da; New England Nuclear). Radioactivity was determined and the levels associated with MMTV polypeptide peaks quantitated using a generalized curve-fit computer program.

[2] = system: MJY-alpha monolayers; type: cell-based
[3] = system: MJY-alpha mammary tumor cells; experiment: PTT.119 induced resistance test, long-term low dose culture; type: cell-based
[4] = system: MJY-alpha monolayers; experiment: Incorporation of radiolabeled precursors; type: cell-based
Description: The metabolism of treated MJY-alpha mammary tumor cell cultures were screened by monitoring the uptake and incorporation of 3H-uridine, 3H-thymidine, and 35S-methionine. Cultures were treated as described and given radiolabeled precursors in treatment medium at 0-24 for 24 to 48 hours during the treatment periods.
Levels of radioactivity incorporated into the cells were determined following harvesting of the cells on glass filters using a Mash II cell harvester. Each sample was examined in quadruplicate.
In addition to determining cellular viability by trypan blue exclusion, the levels of metabolic activity of PTT.119-treated cells were compared to solvent-treated and untreated controls. Confluent MJY-alpha monolayers were again processed as previously described and […], […], ^3 H-thymidine, and ^35 S-methionine incorporation quantitated during the 24 and 48 hour treatment periods. Following 24 hour tripeptide treatment, the only parameter that was substantially depressed compared to control cultures was the incorporation of ^35 S-radioactivity into cells treated with 15 uM PTT.119 (Table 10).

[5] = system: L1210 MTX; experiment: MTX and cisplatin cross-resistance test, 24 hour exposure; type: cell-based
[6] = system: L1210DDP; experiment: cells; type: cell-based
[7] = system: MMTV; type: cell-based, mouse
[8] = system: L1210 leukemia; experiment: cells; type: cell-based, mice
[9] = system: MJY-alpha mammary tumor cell layers; experiment: Tumor cell survival (trypan blue), continuous exposure; type: cell-based, Mouse; conditions: for Percent Tumor Cell Survival / % tumor cell survival / reduction of tumor cell survival: MJY-alpha; for Percent Tumor Cell Survival: treated 24 hr; for reduction of tumor cell survival: 10 microgram/ml
[10] = Mus musculus, L1210, 24 h, read-out: T.C.D.50

Structure (SMILES): CCOC(=O)[C@H](CCSC)NC(=O)[C@H](Cc1cccc(N(CCCl)CCCl)c1)NC(=O)[C@@H](N)Cc1ccc(F)cc1.Cl [PTT.119, 3-(p-fluorophenyl)-L-alanyl-3-[m-bis(2-chloroethyl)aminophenyl]-L-alanyl-L-methionine ethyl ester hydrochloride]
- levels of radiolabeled MMTV polypeptides higher than in parallel controls ([1]; 15 min pulse labelling at end of 24 and 48 hour treatment): 1.5 fold
- activity at 15 µM ([1]; 24 hr, 15 min pulse labelling): 181%
- activity at 15 µM ([1]; 48 hr, 15 min pulse labelling): 154%
- activity at 15 µM ([1]; 48 hr, 24 hr labeling): 125%
- activity at 15 µM ([1]; 24 h, 24 hr, 24 hr labeling): 128%
- reduction of viability of tumor cell layers compared to solvent [2]: 15-20%
- survival of monolayers in continuous treatment ([3]; 15 uM): did not survive beyond the second passage
- dose response curves of treated lines vs previously untreated MJY-alpha cells ([3]; alpha-0.15, alpha-1.5, alpha-7.5, 8 months, 24 h challenge with 1.5-75 uM): No alteration
- Relative level of incorporation of radiolabels (%) ([4]; 1.5 uM, 24 hours, 3H-thy): 91.2%
- Relative level of incorporation of radiolabels (%) ([4]; 1.5 uM, 24 hours, 3H-ur): 90.9%
- Relative level of incorporation of radiolabels (%) ([4]; 1.5 uM, 24 hours, 35S-met): 103.3%
- Relative level of incorporation of radiolabels (%) ([4]; 1.5 uM, 48 hours, 3H-thy): 118.1%
- Relative level of incorporation of radiolabels (%) ([4]; 1.5 uM, 48 hours, 3H-ur): 103.4%
- Relative level of incorporation of radiolabels (%) ([4]; 1.5 uM, 48 hours, 35S-met): 96.1%
- Relative level of incorporation of radiolabels (%) ([4]; 7.5 uM, 24 hours, 3H-thy): 99.0%
- Relative level of incorporation of radiolabels (%) ([4]; 7.5 uM, 24 hours, 3H-ur): 100.6%
- Relative level of incorporation of radiolabels (%) ([4]; 7.5 uM, 24 hours, 35S-met): 97.2%
- Relative level of incorporation of radiolabels (%) ([4]; 7.5 uM, 48 hours, 3H-thy): 83.1%
- Relative level of incorporation of radiolabels (%) ([4]; 7.5 uM, 48 hours, 3H-ur): 108.6%
- Relative level of incorporation of radiolabels (%) ([4]; 7.5 uM, 48 hours, 35S-met): 89.9%
- depression of 3H-thymidine incorporation ([4]; 7.5 uM, second day of treatment): 17%
- Relative level of incorporation of radiolabels (%) ([4]; 15.0 uM, 24 hours, 3H-thy): 103.6%
- Relative level of incorporation of radiolabels (%) ([4]; 15.0 uM, 24 hours, 3H-ur): 100.1%
- Relative level of incorporation of radiolabels (%) ([4]; 15.0 uM, 24 hours, 35S-met): 82.7%
- Relative level of incorporation of radiolabels (%) ([4]; 15.0 uM, 48 hours, 3H-thy): 82.9%
- Relative level of incorporation of radiolabels (%) ([4]; 15.0 uM, 48 hours, 3H-ur): 80.5%
- Relative level of incorporation of radiolabels (%) ([4]; 15.0 uM, 48 hours, 35S-met): 80.4%
- reductions in levels of cell-associated radioactivity, all three precursors ([4]; 15 uM, second day of treatment): 20%
- T.C.D.100 ([5]; L1210 MTX, 24 hours exposure): 3.75 µM
- IC50 [5, 10]: 1940 nM
- IC50 ([6]; 24 h, read-out: T.C.D.50): 525 nM
- concentration at which remaining L1210DDP population becomes sensitive ([6]; 24 hours exposure): 4 to 15 µM
- share of L1210DDP cells highly susceptible ([6]; doses of 1 uM, 24 hours): Approximately 60%
- less MMTV produced compared to controls (labeled uridine) [7]: 37%
- reduction of MMTV replication [7]: 27%
- reduction of viral replication (labeled uridine) [7]: 42%
- T.C.D.100 [8]: 37.5
- elimination of viable population [8]: completely eliminated the viable population
- surviving fraction at end of examination period [8]: 15%
- percentage of viable cells ([8]; 3.75 µM): 40-50%
- IC50 [8, 10]: 9000 nM
- Percent Tumor Cell Survival ([9]; 1 ug/ml): 54%
- % tumor cell survival ([9]; 5 ug/ml, 1 hr): 100%
- % tumor cell survival ([9]; 5 ug/ml, 4 hr): 100%
- % tumor cell survival ([9]; 5 ug/ml, 8 hr): 100%
- % tumor cell survival ([9]; 5 ug/ml, 24 hr): 53%
- Percent Tumor Cell Survival ([9]; 5 ug/ml): 41%
- % tumor cell survival ([9]; 10 ug/ml, 1 hr): 100%
- % tumor cell survival ([9]; 10 ug/ml, 4 hr): 100%
- % tumor cell survival ([9]; 10 ug/ml, 8 hr): 100%
- % tumor cell survival ([9]; 10 ug/ml, 24 hr): 53%
- Percent Tumor Cell Survival ([9]; 10 ug/ml): 36%
- % tumor cell survival ([9]; 25 ug/ml, 1 hr): 100%
- % tumor cell survival ([9]; 25 ug/ml, 4 hr): 100%
- % tumor cell survival ([9]; 25 ug/ml, 8 hr): 98%
- % tumor cell survival ([9]; 25 ug/ml, 24 hr): 25%
- Percent Tumor Cell Survival ([9]; 25 ug/ml): 27%
- % tumor cell survival ([9]; 50 ug/ml, 1 hr): 98%
- % tumor cell survival ([9]; 50 ug/ml, 4 hr): 87%
- % tumor cell survival ([9]; 50 ug/ml, 8 hr): 62%
- % tumor cell survival ([9]; 50 ug/ml, 24 hr): 19%
- Percent Tumor Cell Survival ([9]; 50 ug/ml): 20%
- reduction of tumor cell survival ([9]; another 24 hours): 25%
- reduction of tumor cell survival ([9]; zero to 24 hours): 8%
- decrease in mammary tumor cell survival ([9]; continuous 24 hr exposure, all concentrations tested (0.1 to 50 ug/ml)): 46-80%
